Assay: Log stability constants of ligands for metal ions (literature)
Details: Fe(III) minus Ca
Description: A measure of the “affinity” of metal-ion sequestrants for various metal-ions is given by the stability constant (also often referred to as critical stability constants, complex formation constants, equilibrium constants, or formation constants) of that sequestrant for a given metal-ion. […] The ability of a specific molecule or ligand to sequester a metal-ion may depend also upon the pH, the concentrations of interfering ions, and the rate of complex formation (kinetics). Generally, however, the greater the stability constant, the greater the binding affinity for that particular metal-ion. Often the stability constants are expressed as the natural logarithm of the stability constant. Herein the stability constant for the reaction of a metal-ion (M) and a sequestrant or ligand (L) is defined as follows: M+n L⇄MLn
where the stability constant is βn=[MLn]/[M][L]^n, wherein [MLn] is the concentration of “complexed” metal-ion, [M] is the concentration of free (uncomplexed) metal-ion and [L] is the concentration of free ligand. The log of the stability constant is log βn, and n is the number of ligands which coordinate with the metal. It follows from the above equation that if βn is very large, the concentration of “free” metal-ion will be very low. […]

## O=C(O)CN(CCN(CC(=O)O)CC(=O)O)CCN(CC(=O)O)CC(=O)O [DTPA, diethylenetriaminepentaacetic acid]
  difference between the log stability constants (specificity): 17.2

Source: patent US20050276862A1, “Iron sequestering antimicrobial composition” (priority 2004, published 2005)
